# Assay results: ChEMBL document CHEMBL1687743, “Intravenous doripenem at 500 milligrams versus levofloxacin at 250 milligrams, with an option to switch to oral therapy, for treatment of complicated lower urinary tract infection and pyelonephritis” (Antimicrob Agents Chemother, 2009)
# Legend:
# Enterococcus faecalis = assay: Antibacterial activity against Enterococcus faecalis; assay type: functional
# Enterococcus faecium = assay: Antibacterial activity against Enterococcus faecium; assay type: functional
# Staphylococcus aureus = assay: Antibacterial activity against Staphylococcus aureus; assay type: functional
# Escherichia coli [1] = assay: Antibacterial activity against Escherichia coli infected in microbiologically evaluable patient with UTI assessed as cure rate at 500 mg, iv administered every 8 hrs for 10 days measured at test-of-cure visit; assay type: functional
# Escherichia coli [2] = assay: Antibacterial activity against levofloxacin-resistant Escherichia coli infected in microbiologically evaluable patient with UTI assessed as cure rate at 500 mg, iv administered every 8 hrs for 10 days measured at test-of-cure visit; assay type: functional
# Escherichia coli [3] = assay: Antibacterial activity against levofloxacin-resistant Escherichia coli infected in clinically evaluable patient with UTI assessed as cure rate at 500 mg, iv administered every 8 hrs for 10 days measured at test-of-cure visit; assay type: functional
# Klebsiella pneumoniae = assay: Antibacterial activity against Klebsiella pneumoniae infected in microbiologically evaluable patient with UTI assessed as cure rate at 500 mg, iv administered every 8 hrs for 10 days measured at test-of-cure visit; assay type: functional
# Proteus mirabilis = assay: Antibacterial activity against Proteus mirabilis infected in microbiologically evaluable patient with UTI assessed as cure rate at 500 mg, iv administered every 8 hrs for 10 days measured at test-of-cure visit; assay type: functional
# Escherichia coli [4] = assay: Antibacterial activity against Escherichia coli isolated from patient with urinary tract infection receiving drug at 500 mg, iv administered every 8 hrs for 10 days measured after post drug therapy; assay type: functional; settings: Urine
# Serratia marcescens = assay: Antibacterial activity against Serratia marcescens isolated from patient with urinary tract infection receiving drug at 500 mg, iv administered every 8 hrs for 10 days measured after post drug therapy; assay type: functional; settings: Urine
# Enterococcus avium = assay: Antibacterial activity against doripenem-resistant Enterococcus avium; assay type: functional
# Homo sapiens [5] = assay: Treatment emergent adverse event in intent-to-treat patient with complicated urinary tract infection assessed as headache at 500 […], iv administered every 8 hrs for 10 days; assay type: ADME, organism-based, Urine; parameters: route intravenous; settings: in vivo
# Homo sapiens [6] = assay: Treatment emergent adverse event in intent-to-treat patient with complicated urinary tract infection assessed as constipation at 500 […], iv administered every 8 hrs for 10 days; assay type: ADME, organism-based; parameters: route intravenous; settings: in vivo
# Homo sapiens [7] = assay: Treatment emergent adverse event in intent-to-treat patient with complicated urinary tract infection assessed as diarrhea at 500 […], iv administered every 8 hrs for 10 days; assay type: ADME, organism-based; parameters: route intravenous; settings: in vivo
# Homo sapiens [8] = assay: Treatment emergent adverse event in intent-to-treat patient with complicated urinary tract infection assessed as vomiting at 500 […], iv administered every 8 hrs for 10 days; assay type: organism-based; parameters: route intravenous; settings: in vivo
# Homo sapiens [9] = assay: Treatment emergent adverse event in intent-to-treat patient with complicated urinary tract infection assessed as upper abdominal pain at 500 […], iv administered every 8 hrs for 10 days; assay type: organism-based; parameters: route intravenous; settings: in vivo
# Homo sapiens [10] = assay: Treatment emergent adverse event in intent-to-treat patient with complicated urinary tract infection assessed as nausea at 500 […], iv administered every 8 hrs for 10 days; assay type: organism-based; parameters: route intravenous; settings: in vivo
# Homo sapiens [11] = assay: Treatment emergent adverse event in intent-to-treat patient with complicated urinary tract infection assessed as phlebitis at 500 […], iv administered every 8 hrs for 10 days; assay type: organism-based; parameters: route intravenous; settings: in vivo
# Homo sapiens [12] = assay: Treatment emergent adverse event in intent-to-treat patient with complicated urinary tract infection assessed as insomnia at 500 […], iv administered every 8 hrs for 10 days; assay type: ADME, organism-based, Urine; parameters: route intravenous; settings: in vivo
# Homo sapiens [13] = assay: Treatment emergent adverse event in intent-to-treat patient with complicated urinary tract infection assessed as urinary tract infection at 500 […], iv administered every 8 hrs for 10 days; assay type: ADME, organism-based, Urine; parameters: route intravenous; settings: in vivo
# Homo sapiens [14] = assay: Treatment emergent adverse event in intent-to-treat patient with complicated urinary tract infection assessed as asymptomatic bacteriuria at 500 […], iv administered every 8 hrs for 10 days; assay type: ADME, organism-based, Urine; parameters: route intravenous; settings: in vivo
# Homo sapiens [15] = assay: Treatment emergent adverse event in intent-to-treat patient with complicated urinary tract infection assessed as back pain at 500 […], iv administered every 8 hrs for 10 days; assay type: organism-based; parameters: route intravenous; settings: in vivo
# Homo sapiens [16] = assay: Treatment emergent adverse event in intent-to-treat patient with complicated urinary tract infection assessed as hypokalemia at 500 […], iv administered every 8 hrs for 10 days; assay type: ADME, organism-based, Urine; parameters: route intravenous; settings: in vivo
# Homo sapiens [17] = assay: Treatment emergent adverse event in intent-to-treat patient with complicated urinary tract infection assessed as abdominal pain at 500 […], iv administered every 8 hrs for 10 days; assay type: ADME, organism-based, Urine; parameters: route intravenous; settings: in vivo
# Homo sapiens [18] = assay: Treatment emergent adverse event in intent-to-treat patient with complicated urinary tract infection assessed as >=1 adverse event at 500 mg/kg, iv administered every 8 hrs for 10 days; assay type: organism-based, Urine; parameters: dose 500 mg/kg, route intravenous; settings: in vivo
# Homo sapiens [19] = assay: Drug related treatment emergent adverse event in intent-to-treat patient with complicated urinary tract infection assessed as >=1 adverse event at 500 mg/kg, iv administered every 8 hrs for 10 days; assay type: toxicity, organism-based, Urine; parameters: dose 500 mg/kg, route intravenous; settings: in vivo
# Homo sapiens [20] = assay: Drug related treatment emergent adverse event in intent-to-treat patient with complicated urinary tract infection assessed as headache at 500 […], iv administered every 8 hrs for 10 days; assay type: toxicity, organism-based, Urine; parameters: dose 500 […], route intravenous; settings: in vivo
# Homo sapiens [21] = assay: Drug related treatment emergent adverse event in intent-to-treat patient with complicated urinary tract infection assessed as diarrhea at 500 […], iv administered every 8 hrs for 10 days; assay type: toxicity, organism-based; parameters: dose 500 […], route intravenous; settings: in vivo
# Homo sapiens [22] = assay: Drug related treatment emergent adverse event in intent-to-treat patient with complicated urinary tract infection assessed as upper abdominal pain at 500 […], iv administered every 8 hrs for 10 days; assay type: toxicity, organism-based; parameters: dose 500 […], route intravenous; settings: in vivo
# Homo sapiens [23] = assay: Drug related treatment emergent adverse event in intent-to-treat patient with complicated urinary tract infection assessed as nausea at 500 […], iv administered every 8 hrs for 10 days; assay type: toxicity, organism-based; parameters: dose 500 […], route intravenous; settings: in vivo
# Homo sapiens [24] = assay: Drug related treatment emergent adverse event in intent-to-treat patient with complicated urinary tract infection assessed as phlebitis at 500 […], iv administered every 8 hrs for 10 days; assay type: toxicity, organism-based, Urine; parameters: dose 500 […], route intravenous; settings: in vivo
compound,measurement,setting,value
C[C@@H](O)[C@H]1C(=O)N2C(C(=O)O)=C(S[C@@H]3CN[C@H](CNS(N)(=O)=O)C3)[C@H](C)[C@H]12 [DORIPENEM],MIC,Enterococcus faecalis,≥ 16 µg/mL
same,MIC,Enterococcus faecium,≥ 16 µg/mL
same,MIC,Staphylococcus aureus,≥ 16 µg/mL
same,Activity,Escherichia coli [1],84.4%
same,Activity,Escherichia coli [2],55%
same,Activity,Escherichia coli [3],86%
same,Activity,Klebsiella pneumoniae,83.3%
same,Activity,Proteus mirabilis,69.6%
same,MIC,Escherichia coli [4],0.06 µg/mL
same,MIC,Serratia marcescens,0.5 µg/mL
same,MIC,Enterococcus avium,128 µg/mL
same,Activity,Homo sapiens [5],15.7%
same,Activity,Homo sapiens [6],5.9%
same,Activity,Homo sapiens [7],5.6%
same,Activity,Homo sapiens [8],5.1%
same,Activity,Homo sapiens [9],4.5%
same,Activity,Homo sapiens [10],4.3%
same,Activity,Homo sapiens [11],3.7%
same,Activity,Homo sapiens [12],3.7%
same,Activity,Homo sapiens [13],3.7%
same,Activity,Homo sapiens [14],3.7%
same,Activity,Homo sapiens [15],2.1%
same,Activity,Homo sapiens [16],2.1%
same,Activity,Homo sapiens [17],1.9%
same,Activity,Homo sapiens [18],64%
same,Activity,Homo sapiens [19],28.2%
same,Activity,Homo sapiens [20],4.5%
same,Activity,Homo sapiens [21],4%
same,Activity,Homo sapiens [22],0.5%
same,Activity,Homo sapiens [23],2.9%
same,Activity,Homo sapiens [24],2.4%
